Earlier results in publication PMC11451938 (RSC Medicinal Chemistry, 2024).

Biological target: hNTS1
Conditions: read-out: NTS1 Ki; CHO-K1 cells expressing hNTS1

JMV 438: NT[8-13] in which the Arg8-Arg9 fragment was replaced with Lys8-Lys9
Ki: 4 nM
